15 compounds from ChEMBL document CHEMBL1134209, “Syntheses and evaluation of pyrido[2,3-dlpyrimidine-2,4-diones as PDE 4 inhibitors” (Bioorg Med Chem Lett, 2001) can be followed below.

For test [1], the target named is Phosphodiesterase 4 (Rattus norvegicus) (UniProt P14270+P14646+P14644+P54748). Description: In vitro inhibitory activity against phosphodiesterase 4 from rat liver at concentration of 3 uM.
In test [2] the target is Phosphodiesterase 4 (Rattus norvegicus, UniProt P14270+P14646+P14644+P54748). The test is described as follows: Inhibition of phosphodiesterase 4 from rat liver at 0.3 uM (not determined).

Consider `Cn1c(=O)n(Cc2ccccc2)c(=O)c2cc(COCc3ccccc3)cnc21`, for which the Inhibition in test [1] came to 49.8%.
Same read-out and setting: as for `Cn1c(=O)n(Cc2ccccc2)c(=O)c2cc(-c3ccc(Cl)cc3)cnc21`, the figure is 47.8%; as for `Cn1c(=O)n(Cc2ccccc2)c(=O)c2cc(-c3cccc([N+](=O)[O-])c3)cnc21`, 23.5%; as for `Cn1c(=O)n(Cc2ccccc2)c(=O)c2cc(-c3ccccc3C(F)(F)F)cnc21`, 53.7%.
The same measure, in the same setting: as for `Cn1c(=O)n(Cc2ccccc2)c(=O)c2cc(-c3cccc(C(F)(F)F)c3)cnc21`, the figure is 37.6%; as for `Cn1c(=O)n(Cc2ccccc2)c(=O)c2cc(-c3ccccc3F)cnc21`, 46.4%; as for `CCOc1ccc(-c2ccnc3c2c(=O)n(Cc2ccccc2)c(=O)n3C)cc1`, 35.1%.
In test [1], `Cn1c(=O)n(Cc2ccccc2)c(=O)c2cc(-c3ccccc3)cnc21` came in with an Inhibition of 31.3%. In test [2], this compound gave a half-inhibitory concentration (IC50) greater than 10 µM.
The compound `Cn1c(=O)n(Cc2ccccc2)c(=O)c2cc(Cc3ccccc3)cnc21` showed an Inhibition in test [1] of 68.2%.
In turn, `CCOC(=O)c1cnc2c(c1)c(=O)n(Cc1ccccc1)c(=O)n2C` showed an Inhibition in test [1] of 43%.
Consider `Cn1c(=O)n(Cc2ccccc2)c(=O)c2cc(-c3ccc(F)cc3)cnc21`, for which the Inhibition in test [1] is 44%.
Turning to `Cn1c(=O)n(Cc2ccccc2)c(=O)c2cc(COc3ccccc3)cnc21`, the Inhibition in test [1] was 45.1%.
The same measure, in the same setting: as for `CCCOCc1cnc2c(c1)c(=O)n(Cc1ccccc1)c(=O)n2C`, the figure is 46.7%; as for `Cn1c(=O)n(Cc2ccccc2)c(=O)c2c(-c3ccccc3F)ccnc21`, 69.7%; as for `Cn1c(=O)n(Cc2ccccc2)c(=O)c2c(Cc3ccccc3)ccnc21`, 57.1%.
